From patent US12234228B2, “Nitric oxide donor and anti-oxidant compounds” (University of North Texas Health Science Center, priority 2018, dated 2025) come the findings set out here.

Molecules are shown by their SMILES. “Also recorded” adds a separate entry of the source.

In data set [1] the test system is Nitric oxide synthetase (NOS). Briefly: NOS activating activity in HUVEC under H2O2 stress. It is filed as cell-based, Human. As to conditions: HUVEC under H2O2 induced oxidative stress. The protocol: In vitro Nitric oxide synthetase (NOS) activating activity. Human Umbilical Vascular Endothelial Cells (HUVECs) were plated at a density of 2×10^5 cells per well and were treated with or without H2O2 (200 μM) and compounds at different concentrations. NOS knock-down samples (NOSi) were cells exposed to a competitive NOS inhibitor L-NNA at 50 μM. After 24-hour-treatment, total NOS activity from treated cells was quantified using OxiSelect™ Intracellular Nitric Oxide (NO) Assay Kit where NOS activity correlates to fluorescent intensity^5.

A further data set concerns ROS in HUVEC cells. Briefly: ROS scavenging in HUVEC under oxidative stress (DCFDA assay). It is filed as cell-based, Human. Particulars: H2O2 induced oxidative stress, SA-9 at 0.05 μM.
Data set [2] concerns HUVEC. Briefly: HUVEC viability / cytoprotection under H2O2 induced oxidative stress (MTT). It counts as cell-based, Human.
Data set [3] concerns HUVEC. Kind of data set: in vitro angiogenesis / tube formation under oxidative stress. It counts as cell-based, Human. On the procedure:
In vitro angiogenesis studies. Cultrex reduced growth factor basement membrane extracted gel (Cat. 3433-005-01, R&D Systems, Inc.) was coated on bottom of μ-Slide angiogenesis wells (Cat. 81506, iBidi GmbH Co.). ECs at early passages (passage 6th or earlier) were then seeded on gel at a seeding density of 25,000 cells/cm^2. Next, cells were treated with treatment groups (SA-2, SA-10, SA-10 NPs, VEGF) under stress condition (200 μM H2O2). After 12 hours of incubation, formation of new microtubes were visualized and captured on phase contrast microscopes. Images were then stacked and processed with Angiogenesis analyzer on ImageJ.

Data set [4] relates to primary microglia isolated from rat retina. Kind of data set: TII induced nitric oxide in primary microglia (Greiss assay). As to conditions: 10 μM, 24 h. It is filed as cell-based.
The test system is the same in data set [5]. Kind of data set: TII induced cell death in primary microglia (LDH assay). It counts as cell-based. As to conditions: 10 μM, 24 h.
The subject of the next data set is I/R mice retina. Briefly: retinal ischemia/reperfusion injury model in mouse eyes. It is filed as in vivo. On the procedure:
The function of retinal ganglion cells (RGCs) can be non-invasively assessed by pattern electroretinogram (PERG) a technique that emphasizes the activity of inner retina neurons. The amplitude of PERG reflects the degree of apparent damage by RGCs. A murine model of ocular stroke was employed to evaluate the function of […] upon administration of SA-10. After a single intravitreal injection of 100 μM of SA-10 to the left eye of mice (C57BL/6J, 12 weeks old, female) having undergone ischemia reperfusion (I/R) procedure, standard PERG was analyzed 1 week post I/R to determine whether compound SA-10 could prevent PERG deficits (FIGS. 9A & 9B). […] However, there was a significant decrease in PBS treated mice compared to PERG amplitudes from sham mice (14.8±1.4 μV, n=5). As expected, compound SA-10 injection increased PERG amplitude compared to PBS-treated I/R mice (21±1.4 μV, n=5, p<0.05 vs. I/R+PBS treated mice; values signify mean±SEM).
Ischemic/reperfusion injury model in mouse eyes. Mice (C57Bl6/J, 12 weeks, n=5) were anesthetized and the ischemic/reperfusion (I/R) injury was performed on left eye after it was numbed with proparacaine followed by intravitreal injection of 2 μl of […] of compound SA-10 formulated in PBS (I/R+SA-10 group) or only 2 μl PBS to left eye (I/R+PBS group) at days 0. At day 7, pattern ERG was performed with the JORVEC System. SD-OCT was done to measure the change in overall thickness of retina layers and flash ERG was done to measure the function of bipolar cells (b-wave) as well as photoreceptor cells (a-wave) after 28 days. Pattern ERG was performed to measure the function of RGCs. Right eye was served as contralateral control.

The subject of data set [6] is primary microglia isolated from rat retina. Kind of data set: TII induced ROS in primary microglia (DCFDA assay).

In the case of `Nc1c[n+](C2CCS(=O)(=O)CC2)no1` [SA-10], the eNOS activity result in data set [1] is reported as “induced eNOS signals”. Besides, the “ROS scavenging activity in DCFDA assay” value in the data set on ROS in HUVEC cells is listed as “didn't show any significant ROS scavenging activity”. Besides, the “EC protection, longer protection study” value in the data set on HUVEC [2] (2-day stress with 400 μM H2O2) is on record as “protected over the course of 2-day stress”. Moreover, the “effective range of concentration to protect ECs” value with HUVEC [2] (ECs under H2O2 stress) is “up to 100 μM”. For the same compound, the cytoprotective activity result in the data set on HUVEC [2] (HUVEC, H2O2 induced oxidative stress, different concentrations) is “potent cytoprotective activity”. Moreover, the “angiogenesis and new tube formation” value in the data set with HUVEC [3] (HUVEC under oxidative stress (200 μM H2O2)) is “induce angiogenesis and new tube formation; also recorded: significantly induced tube formation”. The “angiogenesis and new tube formation (FIG. 5)” value with HUVEC [3] (SA-9 0.5 μM, SA-10 0.005 μM, H2O2 200 μM, low serum media) is “induce angiogenesis and new tube formation”. In data set [4], the “TII induced nitric oxide (nitrite) production” value is “decrease”. Further, the “TII induced cell death (LDH release)” value in data set [5] is “decrease the cell death”. The same compound gave a PERG amplitude in the data set with I/R mice retina (1 week post I/R, single intravitreal injection 100 μM, mean±SEM, n=5) of 21±1.4 μV. For the same compound, the “retinal layer thickness by SD-OCT” value in the data set on I/R mice retina (after I/R) is on record as “maintenance of retinal layer thickness”. In the data set with I/R mice retina (flash ERG 28 days post-I/R), the “ERG amplitude (a- and b-wave) damage after I/R” value is on record as “significantly reversed these damages”. The “protein nitrosylation in retina” value in the data set on I/R mice retina (intravitreal dosing of 2%) was “doesn't cause any significant protein nitrosylation”. Further, the “retina protection against ischemic stroke and reperfusion” value in the data set on I/R mice retina (single intravitreal injection) is “protective to retina”. Besides, in data set [6] (10 μM, 24 h, TII = TNF-α, IL-1β, IFN-γ), the “TII induced ROS production” value is given as “decrease”. In addition, in data set [6] (rat primary microglia, without TII), the “activation of microglia by the compound itself” value is “did not activate”.
